Converted amounts (≈) assume the structure as drawn.
Key:
[1] = tested on: Toxoplasma gondii BK strain; test: T. gondii tachyzoite intracellular proliferation in VERO host cells ([3H]uracil incorporation); assay type: cell-based; conditions: VERO host cells; for IC50 (50% inhibition of T. gondii proliferation in vitro) / IC50: GraphPad Prism curves; for activity at 0.9 µg/mL / activity at 1.8 µg/mL / activity at 3.9 µg/mL / activity at 7.8 µg/mL / activity at 15.6 µg/mL / activity at 31.2 µg/mL / activity at 62.5 µg/mL / activity at 125 µg/mL / IC50: Toxoplasma gondii; for IC50: read-out: IC50 (50% inhibition of T. gondii proliferation in vitro)
Description: The epithelial cell line VERO (ATCC-Catalog No. CCL-81^TM), derived from the kidney of the African green monkey, Cercopithecus aethiops and fibroblast cell line L-929 (ATCC-Catalog No. CCL-1^TM), derived from Mus musculus (http://www.atcc.org) were grown in Iscoves’s Modified Dulbecco’s Medium (IMDM) supplemented with 10% (v/v) fetal bovine serum (FBS), plus 2 mM L-glutamine, 100 U/ml penicillin, 100.00 µg/ml streptomycin, 5 × 10^−5 M 2-mercaptoethanol and maintained at 37 °C in a 10% CO2 atmosphere. Subcultures were performed via enzymatic cell dissociation in 0.25% trypsin. After dissociation, the cells were placed in culture medium at 4 °C with 10% FBS to inhibit the action of trypsin. The isolated cells were centrifuged for 10 min at 1000×g at 4 °C, and the cells were grown in new bottles. This procedure was repeated when cells reached a confluence of ~90%. All commercial reactants and solvents were purchased from either Sigma-Aldrich Laborchemikalien GmbH (Dzitko et al. [2014]).
Suspensions of the compounds 4a–l were freshly prepared (5 mg/ml DMSO) before the cells were exposed, and diluted to appropriate concentrations; 0.9, 1.8, 3.9, 7.8, 15.6, 31.2, 62.5, and 125.00 μg/ml with the culture medium. Cells treated with 2.5% DMSO-solvent served as a control in each experiment.
Stock solutions of the Sulfadiazine (100 mg/ml 1 N NaOH; Catalog No. S8626) was freshly prepared before each experiment, and diluted to appropriate concentrations: 5.00, 25.00, 50.00, 125.00, 250.00, 500.00, 1250.00, and 2500.00 μg/ml, respectively in IMDM complete medium. All commercial reactants and solvents were purchased from either Sigma-Aldrich Laborchemikalien GmbH.
Tachyzoites of T. gondii, BK strain, were maintained in female C57BL/6 (H-2^b) and BALB/c (H-2^d) mice (with genetically determined high and low susceptibility, respectively to Toxoplasma infection) via serial intraperitoneal inoculation of 10^5–10^6 parasites per mouse in phosphate-buffered saline (PBS). After 48 to 96 h, parasites were harvested via peritoneal lavage using PBS, pH 7.2, and centrifuged at 200×g for 5 min to remove blood cells and cell debris. The supernatant containing tachyzoites was collected and centrifuged again at 2000×g for 15 min. The final pellet was resuspended in IMDM, quantified in a Burker’s chamber, and used in experimental assays. Inbred mice were kept under standard laboratory conventional conditions. All experimental procedures were conducted according to guidelines of the 9. Local Ethics Commission for Experiments on Animals in Lodz.
VERO, (2 × 10^4 cells/100 µl/well) were grown in complete medium (IMDM) on 96-well plates. After 24 h incubation, a medium was removed and then T. gondii […] tachyzoites, suspended in culture medium supplemented with 0.9–125.00 μg/ml diaminotriazines 4a–l and as a control-sulfadiazine (5.0–2500.0 μg/ml), were added (2 × 10^5 tachyzoites/200 µl/well) to the cell monolayers. After subsequent 48 h incubation 1 µCi/well of [^3H] uracil (Moravek Biochemicals Inc., Brea, CA, USA) was applied to each microculture for further 18–20 h. The amount of the isotope incorporated into the parasite nucleic acid pool, corresponding to the parasite growth, was measured by liquid scintillation counting with 1450 Microbeta Plus Liquid Scintillation Counter (Wallac Oy, Turku, Finland). The cpms of host cells alone (below 250/microculture) were subtracted from cpms of T. gondii infected microcultures (Dzitko et al. [2014]).

[2] = Cell viability assay (MTT), L929; assay type: cell-based, Mus musculus; conditions: mouse, L929 fibroblast cells
In short: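 L929 and VERO cells seeded at 1.0 × 10^4/well, attached 24 h, then exposed 24 h to compounds at 0.9–125.00 μg/ml (from DMSO stock). MTT (1 mg/ml) added for 2 h at 37 °C, formazan dissolved in DMSO, OD read at 550 nm. Viability expressed as percentage of 2.5% DMSO-treated controls; triplicate.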

SMILES | T. gondii intracellular proliferation ([1]; 0.9 µg/ml) [%] | T. gondii intracellular proliferation ([1]; 1.8 µg/ml) [%] | T. gondii intracellular proliferation ([1]; 3.9 µg/ml) [%] | T. gondii intracellular proliferation ([1]; 7.8 µg/ml) [%] | T. gondii intracellular proliferation ([1]; 15.6 µg/ml) [%] | T. gondii intracellular proliferation ([1]; 31.2 µg/ml) [%] | T. gondii intracellular proliferation ([1]; 62.5 µg/ml) [%] | IC50 (50% inhibition of T. gondii proliferation in vitro) [1] [µg/mL] | activity at 0.9 µg/mL ([1]; 0.9 µg/ml) [%] | activity at 1.8 µg/mL ([1]; 1.8 µg/ml) [%] | activity at 3.9 µg/mL ([1]; 3.9 µg/ml) [%] | activity at 7.8 µg/mL ([1]; 7.8 µg/ml) [%] | activity at 15.6 µg/mL ([1]; 15.6 µg/ml) [%] | activity at 31.2 µg/mL ([1]; 31.2 µg/ml) [%] | activity at 62.5 µg/mL ([1]; 62.5 µg/ml) [%] | activity at 125 µg/mL ([1]; 125.0 µg/ml) [%] | IC50 [1] [µg/mL] | viability at 24 h, 0.9 µg/ml [2] [%] | viability at 24 h, 1.8 µg/ml [2] [%] | viability at 24 h, 3.9 µg/ml [2] [%] | other results
CC(=O)Nc1ccc(-c2csc(N/N=C(\C)c3ccc(Nc4nc(N)nc(N)n4)cc3)n2)cc1 [Compound 4g, (E)-N^2-(4-(2-(2-(1-(4-(4,6-diamino-1,3,5-triazin-2-yloamino)phenyl)ethylidene)hydraziny)thiazol-4-yl)phenyl)-acetamide] | 100.01 | 100.69 | 69.35 | 66.62 | 46.71 | 42.95 | 41.74 | 18.70 |  |  |  |  |  |  |  |  |  |  |  |  | T. gondii intracellular proliferation ([1]; 125.0 µg/ml): 19.11%
C/C(=N\Nc1nc(-c2ccc(Cl)cc2)cs1)c1ccc(Nc2nc(N)nc(N)n2)cc1 [Compound 4b, (E)-N^2-(4-(1-(2-(4-(4-chlorophenyl)-1,3-thiazol-2-yl)hydrazinylidene)ethyl)phenyl)-1,3,5-triazine-2,4,6-triamine] |  |  |  |  |  |  |  |  | 100 | 106 | 101 | 98.2 | 74.6 | 52.2 | 26.1 | 14.7 | 33 (≈ 73.1 µM) | 94.8 | 95.3 | 99.4 | viability at 24 h, 7.8 µg/ml [2]: 99.4%; viability at 24 h, 15.6 µg/ml [2]: 110%; viability at 24 h, 31.2 µg/ml [2]: 113%; viability at 24 h, 62.5 µg/ml [2]: 119%; viability at 24 h, 125 µg/ml [2]: 118%
C/C(=N\Nc1nc(-c2ccc(NS(C)(=O)=O)cc2)cs1)c1ccc(Nc2nc(N)nc(N)n2)cc1 [Compound 4j, (E)-N-(4-(2-(2-(1-(4-(4,6-diamino-1,3,5-triazin-2-yloamino)phenyl)ethylidene)hydrazinyl)thiazol-4-yl)phenyl)-methanesulfonamide] | 99.93 | 100.25 | 99.58 | 89.65 | 78.25 | 67.01 | 46.07 | 59.87 |  |  |  |  |  |  |  |  |  |  |  |  | T. gondii intracellular proliferation ([1]; 125.0 µg/ml): 34.60%
C/C(=N\Nc1nc(-c2ccccc2)cs1)c1ccc(Nc2nc(N)nc(N)n2)cc1 [Compound 4k, (E)-N^2-(4-(1-(2-(4-phenyl-1,3-thiazol-2-yl)hydrazinylidene)ethyl)phenyl)-1,3,5-triazine-2,4,6-triamine] |  |  |  |  |  |  |  |  | 100 | 100 | 96.3 | 85.9 | 63.6 | 49.4 | 36.1 | 17.7 | 31.5 (≈ 75.5 µM) | 109 | 107 | 106 | viability at 24 h, 7.8 µg/ml [2]: 101%; viability at 24 h, 15.6 µg/ml [2]: 106%; viability at 24 h, 31.2 µg/ml [2]: 111%; viability at 24 h, 62.5 µg/ml [2]: 116%; viability at 24 h, 125 µg/ml [2]: 130%
C/C(=N\Nc1nc(-c2ccc3[nH]c(=O)oc3c2)cs1)c1ccc(Nc2nc(N)nc(N)n2)cc1 [Compound 4l, (E)-6-(2-(2-(1-(4-(4,6-diamino-1,3,5-triazin-2-yloamino)phenyl)ethylidene)hydrazinyl)thiazol-4-yl)-benzo[d]oxazol-2(3H)-on] | 99.98 | 101.25 | 106.91 | 79.89 | 56.46 | 45.15 | 20.34 | 23.09 |  |  |  |  |  |  |  |  |  |  |  |  | 
C/C(=N\Nc1nc(-c2ccc([N+](=O)[O-])cc2)cs1)c1ccc(Nc2nc(N)nc(N)n2)cc1 [Compound 4h, (E)-N^2-(4-(1-(2-(4-(4-nitrophenyl)-1,3-thiazol-2-yl)hydrazinylidene)ethyl)phenyl)-1,3,5-triazine-2,4,6-triamine] |  |  |  |  |  |  |  |  | 103 | 105 | 113 | 101 | 85.7 | 77.5 | 74 | 39.4 | 119 (≈ 257 µM) | 100 | 98.5 | 100 | viability at 24 h, 7.8 µg/ml [2]: 105%; viability at 24 h, 15.6 µg/ml [2]: 105%; viability at 24 h, 31.2 µg/ml [2]: 114%; viability at 24 h, 62.5 µg/ml [2]: 118%; viability at 24 h, 125 µg/ml [2]: 104%
C/C(=N\Nc1nc(-c2ccc(Br)cc2)cs1)c1ccc(Nc2nc(N)nc(N)n2)cc1 [Compound 4d, (E)-N^2-(4-(1-(2-(4-(4-bromophenyl)-1,3-thiazol-2-yl)hydrazinylidene)ethyl)phenyl)-1,3,5-triazine-2,4,6-triamine] |  |  |  |  |  |  |  |  | 102 | 104 | 102 | 106 | 75.2 | 62.8 | 29.3 | 15.1 | 37.8 (≈ 76.2 µM) | 99.9 | 97.8 | 99.9 | viability at 24 h, 7.8 µg/ml [2]: 93.7%; viability at 24 h, 15.6 µg/ml [2]: 108%; viability at 24 h, 31.2 µg/ml [2]: 113%; viability at 24 h, 62.5 µg/ml [2]: 115%; viability at 24 h, 125 µg/ml [2]: 113%
C/C(=N\Nc1nc(-c2cc3ccccc3oc2=O)cs1)c1ccc(Nc2nc(N)nc(N)n2)cc1 [Compound 4f, (E)-3-(2-(2-(1-(4-(4,6-diamino-1,3,5-triazin-2-yloamino)phenyl)ethylidene)hydrazinyl)thiazol-4-yl)-2H-chromen-2-on] | 101.02 | 98.89 | 75.89 | 64.30 | 55.65 | 50.52 | 37.17 | 21.53 |  |  |  |  |  |  |  |  |  |  |  |  | T. gondii intracellular proliferation ([1]; 125.0 µg/ml): 14.03%

From paper PMC5854716, “Synthesis, molecular docking, ctDNA interaction, DFT calculation and evaluation of antiproliferative and anti-Toxoplasma gondii activities of 2,4-diaminotriazine-thiazole derivatives” (Medicinal Chemistry Research, 2018)
